# In US20200407717A1, “METHODS OF MODULATING ANTISENSE ACTIVITY” (Ionis Pharmaceuticals, Inc., priority 2018, published 2020):
# e = 2'-O-(2-methoxyethyl) (MOE); d = 2'-deoxy (DNA)
# Test system: Malat1 RNA
# Assay: Antisense activity by RT-qPCR, Malat1, A431 cells
# Format: cell-based
# Experimental: A431 cells were grown at 10,000 cells per well and pre-treated with a variety of growth factors to determine if the addition of exogenous growth factors affects antisense activity or uptake of modified antisense oligonucleotides in a cell. The growth factors used were EGF, insulin growth factor (IGF), transforming growth factor (TGF), […] (VEGF), hepatocyte growth factor (HGF), platelet growth factor (PGF) and fibroblasts growth factor (FGF). To test antisense activity, cells were treated for 4 hours with a growth factor or vehicle alone, and then treated with compound no. 25690 (complementary to Drosha), compound no. 395254 (complementary to Malat1), or vehicle alone. RNA was isolated from the cells and Drosha or Malat1 RNA levels were measured by RT-qPCR. Human primer probe set 13816 (forward sequence […], designated herein as SEQ ID NO: 3; reverse sequence […], designated herein as SEQ ID NO: 4; probe sequence […], designated herein as SEQ ID NO: 5) was used to measure Drosha mRNA levels and primer probe set RTS2736 (forward sequence […], designated herein as SEQ ID NO: 6; reverse sequence […], designated herein as SEQ ID NO: 7; probe sequence TGCCACATCGCCACCCCGT, designated herein as SEQ ID NO: 8) was used to measure Malat1 RNA levels. Drosha and Malat1 RNA levels were normalized to total RNA content, as measured by RIBOGREEN®. Results are presented in the tables below as normalized RNA levels, relative to untreated control cells.
# A431 cells were treated with EGF or TGF at 200 ng/mL in the presence or absence of 1 μM of the EGFR tyrosine kinase inhibitor PD174265. The cells were then treated with compound no. 25690 or compound no. 395254 as in Example 8. Total RNA was isolated and analyzed by RT-qPCR, as in Example 8.
# Following siRNA treatment, cells were treated with compound no. 25690 or compound no. 395254 in the presence or absence of EGF. 16 hours after treatment with a PS-ASO with or without EGF, cells were harvested, and RNA levels were analyzed via RT-qPCR as in Example 8.
sequence,measurement,setting,value
"GGCATATGCAGATAATGTTC (sugars from the 5' end e5 d10 e5, all phosphorothioate, methylation of C not given here) [compound 395254]",Malat1 RNA (% Control),"125 nM, EGFR siRNA-1",26.5 % Control
same,Malat1 RNA (% Control),"125 nM, EGFR siRNA-2",26.6 % Control
same,Malat1 RNA (% Control),"125 nM, EGFR siRNA-2 + EGF",55.2 % Control
same,Malat1 RNA (% Control),"125 nM, EGFR siRNA-2, Table 27",53.1 % Control
same,Malat1 RNA (% Control),"125 nM, TGF",74.4 % Control
same,Malat1 RNA (% Control),"125 nM, TGF+PD174265",47.0 % Control
same,Malat1 RNA (% Control),"125 nM, TGF, Table 21",33.1 % Control
same,Malat1 RNA (% Control),"250 nM, Control",74.0 % Control
same,Malat1 RNA (% Control),"250 nM, Control Luciferase siRNA",16.3 % Control
same,Malat1 RNA (% Control),"250 nM, Control Luciferase siRNA, Table 27",27.6 % Control
same,Malat1 RNA (% Control),"250 nM, Control luciferase + EGF",24.9 % Control
same,Malat1 RNA (% Control),"250 nM, Control, Table 21",37.6 % Control
same,Malat1 RNA (% Control),"250 nM, EGF",43.6 % Control
same,Malat1 RNA (% Control),"250 nM, EGFR siRNA-1",19.7 % Control
same,Malat1 RNA (% Control),"250 nM, EGFR siRNA-2",21.5 % Control
same,Malat1 RNA (% Control),"250 nM, EGFR siRNA-2 + EGF",34.0 % Control
same,Malat1 RNA (% Control),"250 nM, EGFR siRNA-2, Table 27",29.7 % Control
same,Malat1 RNA (% Control),"250 nM, TGF",29.4 % Control
same,Malat1 RNA (% Control),"250 nM, TGF+PD174265",34.9 % Control
same,Malat1 RNA (% Control),"250 nM, TGF, Table 21",19.7 % Control
same,Malat1 RNA (% Control),"500 nM, Control",44.5 % Control
same,Malat1 RNA (% Control),"500 nM, Control Luciferase siRNA",11.9 % Control
same,Malat1 RNA (% Control),"500 nM, Control Luciferase siRNA, Table 27",18.9 % Control
same,Malat1 RNA (% Control),"500 nM, Control luciferase + EGF",17.1 % Control
same,Malat1 RNA (% Control),"500 nM, Control, Table 21",28.9 % Control
same,Malat1 RNA (% Control),"500 nM, EGF",26.1 % Control
same,Malat1 RNA (% Control),"500 nM, EGFR siRNA-1",16.9 % Control
same,Malat1 RNA (% Control),"500 nM, EGFR siRNA-2",15.1 % Control
same,Malat1 RNA (% Control),"500 nM, EGFR siRNA-2 + EGF",24.6 % Control
same,Malat1 RNA (% Control),"500 nM, EGFR siRNA-2, Table 27",23.4 % Control
same,Malat1 RNA (% Control),"500 nM, TGF",27.9 % Control
same,Malat1 RNA (% Control),"500 nM, TGF+PD174265",27.1 % Control
same,Malat1 RNA (% Control),"500 nM, TGF, Table 21",13.5 % Control
same,Malat1 RNA (% Control),"1000 nM, Control",27.0 % Control
same,Malat1 RNA (% Control),"1000 nM, Control Luciferase siRNA",7.9 % Control
same,Malat1 RNA (% Control),"1000 nM, Control Luciferase siRNA, Table 27",18.2 % Control
same,Malat1 RNA (% Control),"1000 nM, Control luciferase + EGF",15.2 % Control
same,Malat1 RNA (% Control),"1000 nM, Control, Table 21",15.2 % Control
same,Malat1 RNA (% Control),"1000 nM, EGF",15.1 % Control
same,Malat1 RNA (% Control),"1000 nM, EGFR siRNA-1",11.3 % Control
same,Malat1 RNA (% Control),"1000 nM, EGFR siRNA-2",12.7 % Control
same,Malat1 RNA (% Control),"1000 nM, EGFR siRNA-2 + EGF",21.4 % Control
same,Malat1 RNA (% Control),"1000 nM, EGFR siRNA-2, Table 27",17.2 % Control
same,Malat1 RNA (% Control),"1000 nM, TGF",14.2 % Control
same,Malat1 RNA (% Control),"1000 nM, TGF+PD174265",21.2 % Control
same,Malat1 RNA (% Control),"1000 nM, TGF, Table 21",7.2 % Control
same,Malat1 RNA (% Control),"2000 nM, Control",24.1 % Control
same,Malat1 RNA (% Control),"2000 nM, Control Luciferase siRNA",7.6 % Control
same,Malat1 RNA (% Control),"2000 nM, Control Luciferase siRNA, Table 27",15.2 % Control
same,Malat1 RNA (% Control),"2000 nM, Control luciferase + EGF",10.2 % Control
same,Malat1 RNA (% Control),"2000 nM, Control, Table 21",11.2 % Control
same,Malat1 RNA (% Control),"2000 nM, EGF",9.9 % Control
same,Malat1 RNA (% Control),"2000 nM, EGFR siRNA-1",10.2 % Control
same,Malat1 RNA (% Control),"2000 nM, EGFR siRNA-2",11.0 % Control
same,Malat1 RNA (% Control),"2000 nM, EGFR siRNA-2 + EGF",18.3 % Control
same,Malat1 RNA (% Control),"2000 nM, EGFR siRNA-2, Table 27",15.2 % Control
same,Malat1 RNA (% Control),"2000 nM, TGF",9.5 % Control
same,Malat1 RNA (% Control),"2000 nM, TGF+PD174265",10.2 % Control
same,Malat1 RNA (% Control),"2000 nM, TGF, Table 21",5.2 % Control
same,Malat1 RNA (% Control),"4000 nM, Control",17.9 % Control
same,Malat1 RNA (% Control),"4000 nM, Control Luciferase siRNA",1.3 % Control
same,Malat1 RNA (% Control),"4000 nM, Control Luciferase siRNA, Table 27",11.2 % Control
same,Malat1 RNA (% Control),"4000 nM, Control luciferase + EGF",7.2 % Control
same,Malat1 RNA (% Control),"4000 nM, Control, Table 21",7.2 % Control
same,Malat1 RNA (% Control),"4000 nM, EGF",10.3 % Control
same,Malat1 RNA (% Control),"4000 nM, EGFR siRNA-1",7.8 % Control
same,Malat1 RNA (% Control),"4000 nM, EGFR siRNA-2",11.1 % Control
same,Malat1 RNA (% Control),"4000 nM, EGFR siRNA-2 + EGF",17.2 % Control
same,Malat1 RNA (% Control),"4000 nM, EGFR siRNA-2, Table 27",15.2 % Control
same,Malat1 RNA (% Control),"4000 nM, TGF",11.6 % Control
same,Malat1 RNA (% Control),"4000 nM, TGF+PD174265",7.2 % Control
same,Malat1 RNA (% Control),"4000 nM, TGF, Table 21",5.7 % Control
same,IC50,"Control (no growth factor), Table 16",36 ± 3.2 nM
same,IC50,"Control Luciferase siRNA, Table 25",46 ± 5.3 nM
same,IC50,"Control Luciferase siRNA, Table 27",49 ± 6.3 nM
same,IC50,"Control luciferase + EGF, Table 27",26 ± 2.4 nM
same,IC50,"Control, Table 21",50 ± 7 nM
same,IC50,"EGF pre-treatment 4 hours, Table 16",15 ± 3 nM
same,IC50,"EGFR siRNA-1, Table 25",86 ± 9.3 nM
same,IC50,"EGFR siRNA-2 + EGF, Table 27",87 ± 4.2 nM
same,IC50,"EGFR siRNA-2, Table 25",100 ± 9.7 nM
same,IC50,"EGFR siRNA-2, Table 27",89 ± 5.9 nM
same,IC50,"TGF 200 ng/mL + 1 μM PD174265, Table 21",56 ± 8.1 nM
same,IC50,"TGF 200 ng/mL, Table 21",21 ± 4 nM
same,IC50,"TGF pre-treatment 4 hours, Table 16",13 ± 2.1 nM
same,"half maximal inhibitory concentration, Malat1","cells treated with IGF, FGF, HGF, VEGF or PGF relative to PS-ASO alone (data not shown)",unchanged
